Assay results taken from patent US5264432A, “5-(1-aminoacyl)-5,10-dihydro-11H-dibenzo[b,e](1,4)diazepin-11-ones” (Arzneimittelwerk Dresden G.m.b.H, priority 1989, dated 1993).
Where a name gives a salt, the structure may show the parent alone. Read-outs that look alike come from different tables or passages of the source.

What was measured:
[1] = in vivo; conditions: rat, iv, i.v. tail vein, Wistar rats, parentheses = confidence interval p=0.05, read-out: LD50 i.v., acute toxicity of the rat
Method: The data were analyzed by the Probit regression analysis with a confidence interval of p=0.05 (values in parentheses).

[2] = tested on: CaCl2 arrhythmia of the rat; test: CaCl2 arrhythmia of the rat (antifibrillatory effect); conditions: ratio LD50 iv./ED50 iv.
Method: The data is analyzed by the Probit regression analysis with a confidence interval of p=0.05 (values in parentheses).
Q is the ratio of LD50 iv. /ED50 iv. to determine therapeutic breadth range.

[3] = tested on: dogs, 24 hours after a two-step coronary ligature; test: two-step coronary ligature on the dog (Harris model); format: in vivo; conditions: for ectopic contractions in percent/min. / total number of heart contractions/min.: average value; for effective action in minutes (duration of action), Harris dog: i.v. at the effective dose, dogs, 24 hours after two-step coronary ligature
Method: Dose is the effective dose in mg/kg, as well as the duration of action in minutes in dogs, 24 hours after a two-step coronary ligature.

[4] = tested on: dogs, 24 hours after a two-step coronary ligature; conditions: quinidine, cited from earlier work

Compound | LD50 [1] [mg/kg] | Q = LD50/ED50 (therapeutic breadth) [2] | ectopic contractions in percent/min. ([3]; 5 mins, 0.005 mmol/kg) [percent/min.] | ectopic contractions in percent/min. ([3]; 30 mins, 0.005 mmol/kg) [percent/min.] | ectopic contractions in percent/min. ([3]; 60 mins, 0.005 mmol/kg) [percent/min.] | ectopic contractions in percent/min. ([3]; 120 mins, 0.005 mmol/kg) [percent/min.] | effective action in minutes (duration of action), Harris dog [3] [min] | also measured
CN(C)CCCCCC(=O)N1c2ccccc2NC(=O)c2ccccc21 [Example 1, 5-(6-Dimethylamino-capronyl)-5,10-dihydro-11H-dibenzo(b,e)(1,4)-diazepine-11-one.HCl] | 85 | 207 | 30 | 47 | 54 | 68 | 60 | ectopic contractions in percent/min. ([3]; 180 mins, 0.005 mmol/kg): 80 percent/min.
C=C[C@H]1C[N@@]2CC[C@H]1C[C@@H]2[C@@H](O)c1ccnc2ccc(OC)cc12 [Quinidine] | – | – | – | – | – | – | – | Harris dog effective dose ([4]; i.v., reference [1] Mokler and Arman 1962): 10.0 mg/kg; effective action in minutes (duration of action), Harris dog ([4]; i.v., reference [1]): 15 min; ectopic arrhythmia (in words) ([4]; reference [1]): decrease in the ectopic arrhythmia; total number of heart contractions (in words) ([4]; reference [1]): decrease in the total number of heart contractions
CCN(CC)CCCCCC(=O)N1c2ccc(Cl)cc2NC(=O)c2ccccc21 [Example 6, 8-Chloro-5-(6-diethylamino-capronyl)-5,10-dihydro-11H-dibenzo(b,e)(1,4)-diazepine-11-one] | 38 | 86 | 20 | 4 | 37 | 76 | 60 | total number of heart contractions/min. ([3]; 5 mins., 0.005 mmol/kg): 170 min⁻¹
5-(4-Diethylamino-butyryl)-5,10-dihydro-11H-dibenzo(b,e)(1,4)-diazepine-11- one [Example 2] | – | – | 26 | 24 | 75 | 90 | – | ectopic contractions in percent/min. ([3]; base, 0.005 mmol/kg): 88 percent/min.
O=C1Nc2cc(Cl)ccc2N(C(=O)CCCCCCN2CCOCC2)c2ccccc21 [Example 9, 8-Chloro-5-(7-N-morpholino-enanthoyl)-5,10-dihydro-11H-dibenzo(b,e)(1,4)-diazepine-11-one] | 41 | 256 | 21 | 38 | 42 | 42 | 120 | total number of heart contractions/min. ([3]; 120 mins., 0.005 mmol/kg): 156 min⁻¹; ectopic contractions in percent/min. ([3]; 180 mins, 0.005 mmol/kg): 73 percent/min.; ectopic contractions in percent/min. ([3]; 300 mins, 0.005 mmol/kg): 79 percent/min.; total number of heart contractions/min. ([3]; 360 mins., 0.005 mmol/kg): 180 min⁻¹; ectopic contractions in percent/min. ([3]; 360 mins, 0.005 mmol/kg): 89 percent/min.
CCN(CC)CCCC(=O)N1c2ccc(Cl)cc2NC(=O)c2ccccc21 [Example 4, 8-Chloro-5-(4-diethylamino-butyryl)-5,10-dihydro-11H-dibenzo(b,e)(1,4)-diazepine-11-one] | 71 | 1614 | – | – | – | – | 30 | total number of heart contractions/min. ([3]; 30 mins., 0.005 mmol/kg): 180 min⁻¹; total number of heart contractions/min. ([3]; 120 mins., 0.005 mmol/kg): 183 min⁻¹
CCN(CC)CC(=O)Nc1c(C)cccc1C [Lidocaine, reference compound] | – | – | – | – | – | – | 15 | ectopic contractions in percent/min. ([3]; 5 mins, 0.02 mmol/kg (5.4 mg/kg)): 34 percent/min.; ectopic contractions in percent/min. ([3]; 30 mins, 0.02 mmol/kg (5.4 mg/kg)): 78 percent/min.; ectopic arrhythmia / ectopy rate (in words) ([3]; dog, Harris): decrease in the ectopic arrhythmia; total number of heart contractions (in words) ([3]; dog, Harris): decrease in the total number of heart contractions
